Values quoted from earlier work, collected in patent US12691128B2, “Methods of treating eosinophilic esophagitis and reducing candidiasis” (Ellodi Pharmaceuticals, L.P., priority 2019, dated 2026).
Like-named read-outs stand apart in the source and are kept apart here. Each block holds one compound with its values, some of them ahead of it.

Assays:
[1] = target: T1, glucocorticoid receptor (Homo sapiens, UniProt P04150); parameters: reference not given here
T1 sequence (P04150 1-777): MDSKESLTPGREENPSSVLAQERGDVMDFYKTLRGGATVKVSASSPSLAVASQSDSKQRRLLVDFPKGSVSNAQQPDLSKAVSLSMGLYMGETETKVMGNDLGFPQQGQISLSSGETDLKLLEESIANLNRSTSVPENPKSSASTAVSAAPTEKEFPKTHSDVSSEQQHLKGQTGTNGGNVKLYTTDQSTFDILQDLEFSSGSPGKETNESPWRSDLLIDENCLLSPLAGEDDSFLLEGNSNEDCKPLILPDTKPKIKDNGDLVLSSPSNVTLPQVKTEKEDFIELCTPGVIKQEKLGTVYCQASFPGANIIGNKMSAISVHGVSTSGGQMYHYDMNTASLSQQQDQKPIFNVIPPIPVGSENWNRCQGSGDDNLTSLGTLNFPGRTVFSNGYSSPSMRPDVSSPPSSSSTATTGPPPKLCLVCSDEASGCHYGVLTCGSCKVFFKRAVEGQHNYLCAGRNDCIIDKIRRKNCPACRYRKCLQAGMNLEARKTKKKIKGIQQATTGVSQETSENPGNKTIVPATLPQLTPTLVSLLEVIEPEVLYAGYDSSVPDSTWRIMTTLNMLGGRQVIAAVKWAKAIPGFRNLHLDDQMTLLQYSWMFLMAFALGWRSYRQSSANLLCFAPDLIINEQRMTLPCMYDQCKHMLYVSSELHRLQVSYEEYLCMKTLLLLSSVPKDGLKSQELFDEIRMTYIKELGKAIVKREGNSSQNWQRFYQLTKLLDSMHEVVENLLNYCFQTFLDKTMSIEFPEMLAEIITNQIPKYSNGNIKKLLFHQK

[2] = reported
[3] = target: CYP3A4 (Homo sapiens, UniProt P08684)
CYP3A4, sequence (P08684 whole entry): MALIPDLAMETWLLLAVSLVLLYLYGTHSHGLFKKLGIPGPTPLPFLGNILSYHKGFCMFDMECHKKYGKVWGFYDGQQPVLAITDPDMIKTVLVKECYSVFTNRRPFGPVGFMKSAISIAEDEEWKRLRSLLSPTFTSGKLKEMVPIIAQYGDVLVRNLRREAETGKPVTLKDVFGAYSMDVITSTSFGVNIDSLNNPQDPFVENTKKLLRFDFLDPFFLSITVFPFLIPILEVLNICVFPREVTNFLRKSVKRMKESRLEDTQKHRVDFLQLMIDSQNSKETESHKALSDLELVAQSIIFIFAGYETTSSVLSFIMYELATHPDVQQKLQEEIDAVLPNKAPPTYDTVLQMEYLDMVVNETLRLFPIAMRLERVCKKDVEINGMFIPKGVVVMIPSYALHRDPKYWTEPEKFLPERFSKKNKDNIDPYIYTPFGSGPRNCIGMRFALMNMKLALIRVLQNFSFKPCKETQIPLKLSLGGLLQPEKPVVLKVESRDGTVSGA

[4] = target: cytochrome (CYP) isoenzyme 2C9 (Homo sapiens, UniProt P11712)
cytochrome (CYP) isoenzyme 2C9, sequence (P11712 whole entry): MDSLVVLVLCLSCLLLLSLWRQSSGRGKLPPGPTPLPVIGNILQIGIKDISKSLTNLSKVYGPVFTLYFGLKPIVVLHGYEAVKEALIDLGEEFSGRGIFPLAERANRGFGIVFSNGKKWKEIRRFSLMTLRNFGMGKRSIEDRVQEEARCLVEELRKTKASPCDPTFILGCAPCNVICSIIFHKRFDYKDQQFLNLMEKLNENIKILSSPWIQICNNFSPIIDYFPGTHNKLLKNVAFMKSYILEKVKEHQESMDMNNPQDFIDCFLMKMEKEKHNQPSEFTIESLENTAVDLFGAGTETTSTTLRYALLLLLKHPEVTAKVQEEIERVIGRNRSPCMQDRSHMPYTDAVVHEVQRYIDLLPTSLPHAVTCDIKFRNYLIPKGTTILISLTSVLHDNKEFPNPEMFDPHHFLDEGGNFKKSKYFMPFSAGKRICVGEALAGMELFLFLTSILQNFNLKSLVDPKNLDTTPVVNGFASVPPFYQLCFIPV

Relative Glucocorticoid Receptor Binding Affinity [1]: 190
Compound: CC1(C)O[C@@H]2C[C@H]3[C@@H]4C[C@H](F)C5=CC(=O)C=C[C@]5(C)[C@H]4[C@@H](O)C[C@]3(C)[C@]2(C(=O)CO)O1 [Flunisolide]

Oral bioavailability [2]: less than 1% | Relative Glucocorticoid Receptor Binding Affinity [1]: 1775 | Solubility (acetone, dichloromethane, ethyl acetate and chloroform): sparingly soluble | Solubility (dimethyl sulfoxide and dimethylformamide): freely soluble | Solubility (methanol and 95% ethanol): slightly soluble | Solubility (water): practically insoluble
Compound: CCC(=O)O[C@]1(C(=O)SCF)[C@H](C)C[C@H]2[C@@H]3C[C@H](F)C4=CC(=O)C=C[C@]4(C)[C@@]3(F)[C@@H](O)C[C@@]21C [Fluticasone propionate, S-(fluoromethyl)-6α,9-difluoro-11β, 17-dihydroxy-16α-methyl-3-oxoandrosta-1,4-diene-17β-carbothioate, 17-propanoate]

Relative Glucocorticoid Receptor Binding Affinity [1]: 12
Compound: C[C@]12C=CC(=O)C=C1CC[C@@H]1[C@@H]2[C@@H](O)C[C@@]2(C)[C@H]1CC[C@]2(O)C(=O)CO [Prednisolone]

Relative Glucocorticoid Receptor Binding Affinity [1]: 233
Compound: CC1(C)O[C@@H]2C[C@H]3[C@@H]4CCC5=CC(=O)C=C[C@]5(C)[C@@]4(F)[C@@H](O)C[C@]3(C)[C@]2(C(=O)CO)O1 [Triamicinolone acetonide]

Compound: C[C@]12C=CC(=O)C=C1CC[C@@H]1[C@@H]2[C@@H](O)C[C@@]2(C)[C@H]1C[C@H]1O[C@@H](C3CCCCC3)O[C@]12C(=O)CO [des-CIC]
Relative Glucocorticoid Receptor Binding Affinity [1]: 12 (1200)

Inhibition of CYP3A4 [3]: moderate inhibitor | Inhibition of cytochrome (CYP) isoenzyme 2C9 [4]: potent inhibitor
Compound: OC(Cn1cncn1)(Cn1cncn1)c1ccc(F)cc1F [fluconazole]
